In US8048881B2, “Pyrimidine derivatives and their use as P2Y12 receptor antagonists” (Actelion Pharmaceuticals Ltd., priority 2005, dated 2011):
Structures can show the parent of a compound that is named as a salt.

These compounds were tested against T1, human P2Y12 receptor (Homo sapiens, UniProt Q9H244) (assay: P2Y12 receptor binding assay). Conditions: CHO cells with recombinant expression of the human P2Y12 receptor; tritium-labeled 2-methyl-S-ADP; incubation at room temperature for 2 hours.
T1 construct: expressed in transfected cells; host or cells: Chinese Hamster Ovary (CHO) cells
Protocol: P2Y12 Receptor Binding Assay
Chinese Hamster Ovary (CHO) cells with recombinant expression of the human P2Y12 receptor were cultured in 24 well cell-culture plates. Cells were washed three times with binding buffer (50 mM Tris pH 7.4, 100 mM NaCl, 1 mM EDTA, 0.5% BSA). The cells were then incubated with 0.5 ml per well binding buffer containing tritium-labeled 2-methyl-thio-adenosine 5′-diphosphate (2-methyl-S-ADP) (between 100'000 and 300'000 dpm per well) and various concentrations of test compounds. After incubation at room temperature for 2 hours, cells were washed three times with binding buffer. Then, cells were solubilized by addition of 0.5 ml solubilization buffer (SDS, NaOH, EDTA). The content of each well was then transferred into beta-counter vials and 2.0 ml of Ultima Gold Scintillation liquid was added.

T1 sequence (Q9H244 whole entry): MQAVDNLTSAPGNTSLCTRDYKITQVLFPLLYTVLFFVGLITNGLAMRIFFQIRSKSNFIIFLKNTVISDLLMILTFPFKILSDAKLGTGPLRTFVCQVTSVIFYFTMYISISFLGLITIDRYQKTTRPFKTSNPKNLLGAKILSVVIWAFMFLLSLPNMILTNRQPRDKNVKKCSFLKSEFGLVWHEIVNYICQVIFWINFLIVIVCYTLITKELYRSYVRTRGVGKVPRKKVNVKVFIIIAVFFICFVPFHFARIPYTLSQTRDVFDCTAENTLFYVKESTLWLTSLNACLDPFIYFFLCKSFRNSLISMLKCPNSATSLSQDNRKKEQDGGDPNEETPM

IC50 [nM]	SMILES
117	CCOC(=O)N1CCN(C(=O)[C@H](CCC(=O)O)NC(=O)c2cc(OC3CCCC3)nc(-c3ccccc3)n2)CC1 [Example 1, 4-{(S)-4-carboxy-2-[(6-cyclopentyloxy-2-phenyl-pyrimidine-4-carbonyl)-amino]-butyryl}-piperazine-1-carboxylic acid ethyl ester]
243	CCOC(=O)N1CCN(C(=O)[C@H](CC(=O)O)NC(=O)c2cc(OC3CCCC3)nc(-c3ccccc3)n2)CC1 [Example 2, 4-{(S)-3-carboxy-2-[(6-cyclopentyloxy-2-phenyl-pyrimidine-4-carbonyl)-amino]-propionyl}-piperazine-1-carboxylic acid ethyl ester]
307	CCOC(=O)N1CCN(C(=O)[C@H](CO)NC(=O)c2cc(OC3CCCC3)nc(-c3ccccc3)n2)CC1 [Example 10, 4-{(S)-2-[(6-cyclopentyloxy-2-phenyl-pyrimidine-4-carbonyl)-amino]-3-hydroxy-propionyl}-piperazine-1-carboxylic acid ethyl ester]
127	CCOC(=O)N1CCN(C(=O)[C@H](CCc2nnn[nH]2)NC(=O)c2cc(OC3CCCC3)nc(-c3ccccc3)n2)CC1 [Example 19, 4-[(S)-2-[(6-cyclopentyloxy-2-phenyl-pyrimidine-4-carbonyl)-amino]-4-(1H-tetrazol-5-yl)-butyryl]-piperazine-1-carboxylic acid ethyl ester]
201	CCOC(=O)N1CCN(C(=O)[C@H](Cc2ccc(C(=O)O)cc2)NC(=O)c2cc(OC3CCCC3)nc(-c3ccccc3)n2)CC1 [Example 21, 4-{(S)-3-(4-carboxy-phenyl)-2-[(6-cyclopentyloxy-2-phenyl-pyrimidine-4-carbonyl)-amino]-propionyl}-piperazine-1-carboxylic acid ethyl ester]
193	CCOC(=O)N1CCN(C(=O)[C@H](CCC(=O)O)NC(=O)c2cc(OCC3CC3)nc(-c3ccccc3)n2)CC1 [Example 27, 4-{(S)-4-carboxy-2-[(6-cyclopropylmethoxy-2-phenyl-pyrimidine-4-carbonyl)-amino]-butyryl}-piperazine-1-carboxylic acid ethyl ester]
592	CCOC(=O)N1CCN(C(=O)C(Cc2cccc(OCC(=O)O)c2)NC(=O)c2cc(OC3CCCC3)nc(-c3ccccc3)n2)CC1 (centres unmarked) [Example 31, 4-{3-(3-carboxymethoxy-phenyl)-2-[(6-cyclopentyloxy-2-phenyl-pyrimidine-4-carbonyl)-amino]-propionyl}-piperazine-1-carboxylic acid ethyl ester]
95	CC(C)OC(=O)N1CCN(C(=O)[C@H](CCC(=O)O)NC(=O)c2cc(OC3CCCC3)nc(-c3ccccc3)n2)CC1 [Example 38, 4-{(S)-4-carboxy-2-[(6-cyclopentyloxy-2-phenyl-pyrimidine-4-carbonyl)-amino]-butyryl}-piperazine-1-carboxylic acid isopropyl ester]
510	CCOC(=O)N1CCN(C(=O)[C@H](CCC(=O)O)NC(=O)c2cc(OC3CCCC3)nc(-c3ccccc3)n2)CC1C (stereo partly drawn) [Example 46, 4-{(S)-4-carboxy-2-[(6-cyclopentyloxy-2-phenyl-pyrimidine-4-carbonyl)-amino]-butyryl}-2-methyl-piperazine-1-carboxylic acid ethyl ester]
276	CCOC(=O)CCNc1cc(C(=O)N[C@@H](CCC(=O)O)C(=O)N2CCN(C(=O)OCC)CC2)nc(-c2ccccc2)n1 [Example 59, 4-((S)-4-carboxy-2-{[6-(2-ethoxycarbonyl-ethylamino)-2-phenyl-pyrimidine-4-carbonyl]-amino}-butyryl)-piperazine-1-carboxylic acid ethyl ester triflate salt]
202	CCOC(=O)N1CCN(C(=O)[C@H](CCC(=O)O)NC(=O)c2cc(NCCCN3CCOCC3)nc(-c3ccccc3)n2)CC1 [Example 66, 4-((S)-4-carboxy-2-{[6-(3-morpholin-4-yl-propylamino)-2-phenyl-pyrimidine-4-carbonyl]-amino}-butyryl)-piperazine-1-carboxylic acid ethyl ester triflate salt]
